Assay results: ChEMBL document CHEMBL4261581, “Synthesis and evaluation of 4-cycloheptylphenols as selective Estrogen receptor-β agonists (SERBAs)” (Eur J Med Chem, 2018)
Active and inactive are the calls of the source. The rule behind the calls is not given here.

How the values were obtained:
[1] = target: Peroxisome proliferator-activated receptor delta (Homo sapiens, UniProt Q03181); experiment: (§1) Agonist activity at GAL4 DNA-binding domain fused PPARdelta receptor (unknown origin) ligand binding domain expressed in UAS-bla HEK 293T cells assessed as beta-lactamase transcriptional activation by FRET-based GeneBLAzer assay; type: cell-based
Estrogen receptor [2] = target: T1, Estrogen receptor (Homo sapiens, UniProt P03372); experiment: Agonist activity at full length ERalpha (unknown origin) after 24 hrs by ERE-driven luciferase reporter gene assay
T1 sequence (P03372 whole entry): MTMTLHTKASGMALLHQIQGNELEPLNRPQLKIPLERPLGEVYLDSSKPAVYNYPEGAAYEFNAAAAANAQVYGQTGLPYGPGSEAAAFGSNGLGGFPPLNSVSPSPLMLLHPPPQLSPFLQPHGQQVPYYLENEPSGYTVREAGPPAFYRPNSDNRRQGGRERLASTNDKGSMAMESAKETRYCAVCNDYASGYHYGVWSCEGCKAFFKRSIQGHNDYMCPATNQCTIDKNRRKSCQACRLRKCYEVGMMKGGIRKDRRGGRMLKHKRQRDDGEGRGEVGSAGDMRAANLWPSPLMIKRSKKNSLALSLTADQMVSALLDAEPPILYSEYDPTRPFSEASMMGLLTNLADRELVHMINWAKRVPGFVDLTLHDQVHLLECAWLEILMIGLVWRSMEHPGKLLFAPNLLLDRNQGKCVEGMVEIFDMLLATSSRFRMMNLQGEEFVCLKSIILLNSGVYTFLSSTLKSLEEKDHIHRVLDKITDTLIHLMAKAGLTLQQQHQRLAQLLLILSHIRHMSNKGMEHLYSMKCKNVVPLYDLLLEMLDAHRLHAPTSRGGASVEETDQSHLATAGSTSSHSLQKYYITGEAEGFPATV

Estrogen receptor beta [3] = target: T2, Estrogen receptor beta (Homo sapiens, UniProt Q92731); experiment: Inhibition of fluorescein-tagged estrogen binding to GST-tagged ERbeta (unknown origin) ligand binding domain after 1 hr by LanthaScreen TR-FRET assay
Estrogen receptor [4] = target: T1, Estrogen receptor; experiment: Antagonist activity at full length ERalpha (unknown origin) assessed as reduction in E2 induced response after 24 hrs by cell based ERE-driven luciferase reporter gene assay
Estrogen receptor [5] = target: T1, Estrogen receptor; experiment: Inhibition of fluorescein-tagged estrogen binding to GST-tagged ERalpha (unknown origin) ligand binding domain after 1 hr by LanthaScreen TR-FRET assay
Estrogen receptor beta [6] = target: T2, Estrogen receptor beta
Description: Antagonist activity at full length ERbeta (unknown origin) assessed as reduction in E2 induced response after 24 hrs by cell based ERE-driven luciferase reporter gene assay

Estrogen receptor beta [7] = target: T2, Estrogen receptor beta; experiment: Agonist activity at full length ERbeta (unknown origin) after 24 hrs by cell based ERE-driven luciferase reporter gene assay
[8] = target: Estrogen receptor (Homo sapiens) (UniProt P03372); experiment: Agonist activity at GAL4 DNA-binding domain fused ERalpha (unknown origin) ligand binding domain expressed in UAS-bla GripTite 293 cells assessed as beta-lactamase transcriptional activation by FRET-based GeneBLAzer assay; type: cell-based
[9] = target: Peroxisome proliferator-activated receptor delta (Homo sapiens) (UniProt Q03181); experiment: as §1; type: cell-based
[10] = target: Vitamin D3 receptor (Homo sapiens) (UniProt P11473); experiment: Agonist activity at GAL4 DNA-binding domain fused VDR (unknown origin) ligand binding domain expressed in UAS-bla HEK 293T cells assessed as beta-lactamase transcriptional activation by FRET-based GeneBLAzer assay; type: cell-based
Estrogen receptor [11] = target: T1, Estrogen receptor; experiment: Agonist activity at ERalpha (unknown origin) ligand binding domain assessed as fluorescein-labeled coactivator peptide recruitment by LanthaScreen TR-FRET assay
Estrogen receptor beta [12] = target: T2, Estrogen receptor beta; experiment: Agonist activity at GAL4 DNA-binding domain fused ERbeta (unknown origin) ligand binding domain expressed in UAS-bla GripTite 293 cells assessed as beta-lactamase transcriptional activation by FRET-based GeneBLAzer assay; type: cell-based
Homo sapiens [13] = species: Homo sapiens; experiment: Selectivity index, ratio of EC50 for ERalpha (unknown origin) LBD by fluorescein-labeled coactivator peptide recruitment based LanthaScreen TR-FRET assay to EC50 for ERbeta (unknown origin) LBD by fluorescein-labeled coactivator peptide recruitment based LanthaScreen TR-FRET assay
[14] = target: Progesterone receptor (Homo sapiens) (UniProt P06401); experiment: (§2) Agonist activity at GAL4 DNA-binding domain fused PR (unknown origin) ligand binding domain expressed in UAS-bla HEK 293T cells assessed as beta-lactamase transcriptional activation by FRET-based GeneBLAzer assay; type: cell-based
Estrogen receptor beta [15] = target: T2, Estrogen receptor beta; experiment: Agonist activity at ERbeta (unknown origin) ligand binding domain assessed as fluorescein-labeled coactivator peptide recruitment by LanthaScreen TR-FRET assay
[16] = target: Mineralocorticoid receptor (Homo sapiens) (UniProt P08235); experiment: Agonist activity at GAL4 DNA-binding domain fused MR (unknown origin) ligand binding domain expressed in UAS-bla […] assessed as beta-lactamase transcriptional activation by FRET-based GeneBLAzer assay; type: cell-based
Homo sapiens [17] = species: Homo sapiens; experiment: Selectivity index, ratio of IC50 for full-length human ERalpha to IC50 for full length human ERbeta
Homo sapiens [18] = species: Homo sapiens; experiment: Selectivity ratio for ERbeta (unknown origin) over ERalpha (unknown origin)
[19] = target: Sigma intracellular receptor 2 (Homo sapiens) (UniProt Q5BJF2); experiment: Displacement of [3H]-ditolylguanidine from human sigma2 receptor expressed in HEKT cells at 10 uM after 90 mins by microbeta scintillation counting method; type: cell-based
[20] = target: Histamine H2 receptor (Homo sapiens) (UniProt P25021); experiment: Displacement of [125I]-iodoaminopotentidine from human histamine H2 receptor expressed in HEK Flp-In cells at 10 uM after 90 mins by microbeta scintillation counting method; type: cell-based
[21] = target: Alpha-1B adrenergic receptor (Homo sapiens) (UniProt P35368); experiment: Displacement of [3H]-Prazosin from human adrenergic alpha1B receptor expressed in HEKT cells at 10 uM after 90 mins by microbeta scintillation counting method; type: cell-based
[22] = target: 5-hydroxytryptamine receptor 2B (Homo sapiens) (UniProt P41595); experiment: Displacement of [3H]-LSD from human 5-HT2B receptor expressed in stable HEK cells at 10 uM after 90 mins by microbeta scintillation counting method; type: cell-based
Cytochrome P450 2D6 = Cytochrome P450 2D6 (Homo sapiens, UniProt P10635); experiment: Inhibition of CYP2D6 (unknown origin) using luciferin-ME EGE as substrate preincubated for 10 mins followed by NADPH regeneration system addition and measured after 30 to 45 mins by Promega P450-GloScreening assay; type: ADME
[23] = target: 5-hydroxytryptamine receptor 1A (Homo sapiens) (UniProt P08908); experiment: Displacement of [3H]-WAY100635 from human 5HT1A receptor expressed in stable CHO cells at 10 uM after 90 mins by microbeta scintillation counting method; type: cell-based
hERG (KCNH2) = hERG (KCNH2) (Homo sapiens, UniProt Q12809); experiment: Displacement of [3H]-dofetilide from human ERG expressed in HEK cells at 10 uM after 90 mins by microbeta scintillation counting method; type: cell-based; details: HEK cells expressing human ERG, probe [3H]-dofetilide
[24] = target: Beta-3 adrenergic receptor (Homo sapiens) (UniProt P13945); experiment: Displacement of [3H]-CGP12177 from human adrenergic beta3 receptor expressed in Flp-In HEK cells at 10 uM after 90 mins by microbeta scintillation counting method; type: cell-based
[25] = target: 5-hydroxytryptamine receptor 7 (Homo sapiens) (UniProt P34969); experiment: Displacement of [3H]-LSD from human 5-HT7A receptor expressed in stable HEK cells at 10 uM after 90 mins by microbeta scintillation counting method; type: cell-based
[26] = target: Histamine H2 receptor (Homo sapiens) (UniProt P25021); experiment: Displacement of [3H]-histamine from human histamine H2 receptor expressed in HEKT cells at 10 uM after 90 mins by microbeta scintillation counting method; type: cell-based
[27] = target: 5-hydroxytryptamine receptor 6 (Homo sapiens) (UniProt P50406); experiment: Displacement of [3H]-LSD from human 5-HT6 receptor expressed in stable HEK cells at 10 uM after 90 mins by microbeta scintillation counting method; type: cell-based
Cytochrome P450 3A4 = Cytochrome P450 3A4 (Homo sapiens, UniProt P08684); experiment: Inhibition of CYP3A4 (unknown origin) using luciferin-IPA as substrate preincubated for 10 mins followed by NADPH regeneration system addition and measured after 10 to 30 mins by Promega P450-GloScreening assay; type: ADME
[28] = target: 5-hydroxytryptamine receptor 1D (Homo sapiens) (UniProt P28221); experiment: Displacement of [3H]-5-CT from human 5-HT1D receptor expressed in HEKT cells at 10 uM after 90 mins by microbeta scintillation counting method; type: cell-based
[29] = target: Sigma non-opioid intracellular receptor 1 (Homo sapiens) (UniProt Q99720); experiment: Displacement of [3H]-Pentazocine from human sigma1 receptor expressed in HEKT cells at 10 uM after 90 mins by microbeta scintillation counting method; type: cell-based
[30] = Solubility of the compound in buffer containing 20 mM potassium phosphate of pH 7.5 and 1% DMSO up to 250 uM by nephelometry; type: physicochemical
MCF7 = experiment: Antiproliferative activity against human MCF7 cells at 0.01 to 10 uM after 24 hrs by MTT assay; type: functional, cell-based
[31] = target: Alpha-1A adrenergic receptor (Homo sapiens) (UniProt P35348); experiment: Displacement of [3H]-Prazosin from human adrenergic alpha1A receptor at 10 uM after 90 mins by microbeta scintillation counting method
[32] = target: Beta-1 adrenergic receptor (Homo sapiens) (UniProt P08588); experiment: Displacement of [3H]-Pindolol from human adrenergic beta1 receptor expressed in Flp-In CHO cells at 10 uM after 90 mins by microbeta scintillation counting method; type: cell-based
Cytochrome P450 2C9 = Cytochrome P450 2C9 (Homo sapiens, UniProt P11712); experiment: Inhibition of CYP2C9 (unknown origin) using luciferin-H as substrate preincubated for 10 mins followed by NADPH regeneration system addition and measured after 30 mins by Promega P450-GloScreening assay; type: ADME
Cytochrome P450 1A2 = Cytochrome P450 1A2 (Homo sapiens, UniProt P05177); experiment: Inhibition of CYP1A2 (unknown origin) using luciferin-ME as substrate preincubated for 10 mins followed by NADPH regeneration system addition and measured after 10 to 30 mins by Promega P450-GloScreening assay; type: ADME
Progesterone receptor = Progesterone receptor (Homo sapiens, UniProt P06401); experiment: as §2; type: cell-based

T2 sequence (Q92731 whole entry, the tested form may be a part): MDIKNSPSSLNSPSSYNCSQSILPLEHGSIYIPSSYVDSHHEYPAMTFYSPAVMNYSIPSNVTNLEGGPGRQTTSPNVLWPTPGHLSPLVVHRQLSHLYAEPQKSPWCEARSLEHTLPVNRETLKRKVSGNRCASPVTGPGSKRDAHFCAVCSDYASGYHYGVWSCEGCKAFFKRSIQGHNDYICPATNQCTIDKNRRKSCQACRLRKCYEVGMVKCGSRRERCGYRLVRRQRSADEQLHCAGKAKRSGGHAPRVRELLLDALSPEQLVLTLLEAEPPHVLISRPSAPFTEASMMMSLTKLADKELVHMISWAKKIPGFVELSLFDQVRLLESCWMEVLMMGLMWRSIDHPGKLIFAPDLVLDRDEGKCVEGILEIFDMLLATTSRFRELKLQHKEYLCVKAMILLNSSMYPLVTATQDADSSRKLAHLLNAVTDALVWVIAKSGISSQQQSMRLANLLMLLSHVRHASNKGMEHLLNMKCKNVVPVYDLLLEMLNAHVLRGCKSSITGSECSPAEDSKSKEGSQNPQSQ
Sequence of Histamine H2 receptor (Homo sapiens) (P25021 whole entry): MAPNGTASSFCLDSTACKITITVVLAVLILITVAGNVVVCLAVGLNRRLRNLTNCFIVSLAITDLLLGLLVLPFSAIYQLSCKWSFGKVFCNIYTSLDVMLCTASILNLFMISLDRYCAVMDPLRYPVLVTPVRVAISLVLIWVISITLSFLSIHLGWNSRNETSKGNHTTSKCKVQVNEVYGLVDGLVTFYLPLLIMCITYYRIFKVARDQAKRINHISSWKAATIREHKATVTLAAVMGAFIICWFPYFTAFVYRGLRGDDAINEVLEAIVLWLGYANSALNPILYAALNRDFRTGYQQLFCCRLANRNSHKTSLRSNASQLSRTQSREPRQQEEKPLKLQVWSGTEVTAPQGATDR
Sequence of Sigma non-opioid intracellular receptor 1 (Homo sapiens) (Q99720 whole entry): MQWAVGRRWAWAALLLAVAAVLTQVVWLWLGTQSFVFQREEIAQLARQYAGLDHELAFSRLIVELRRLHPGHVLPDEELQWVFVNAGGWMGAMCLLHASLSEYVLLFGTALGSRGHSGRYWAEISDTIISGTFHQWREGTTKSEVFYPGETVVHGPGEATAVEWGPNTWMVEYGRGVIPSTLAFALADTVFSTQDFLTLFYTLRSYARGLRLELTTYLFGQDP
Sequence of 5-hydroxytryptamine receptor 7 (Homo sapiens) (P34969 whole entry): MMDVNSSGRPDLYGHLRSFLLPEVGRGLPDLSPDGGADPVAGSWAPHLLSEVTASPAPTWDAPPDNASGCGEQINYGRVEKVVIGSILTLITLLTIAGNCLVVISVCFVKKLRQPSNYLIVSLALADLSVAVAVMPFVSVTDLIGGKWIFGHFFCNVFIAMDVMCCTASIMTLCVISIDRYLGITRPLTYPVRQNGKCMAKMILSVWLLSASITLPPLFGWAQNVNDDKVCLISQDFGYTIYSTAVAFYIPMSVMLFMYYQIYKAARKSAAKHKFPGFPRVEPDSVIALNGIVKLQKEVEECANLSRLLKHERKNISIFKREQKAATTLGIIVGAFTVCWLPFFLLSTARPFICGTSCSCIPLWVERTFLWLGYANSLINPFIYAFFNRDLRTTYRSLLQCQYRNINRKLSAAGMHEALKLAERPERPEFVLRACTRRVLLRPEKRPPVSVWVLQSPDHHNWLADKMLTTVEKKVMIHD
Sequence of 5-hydroxytryptamine receptor 6 (Homo sapiens) (P50406 whole entry): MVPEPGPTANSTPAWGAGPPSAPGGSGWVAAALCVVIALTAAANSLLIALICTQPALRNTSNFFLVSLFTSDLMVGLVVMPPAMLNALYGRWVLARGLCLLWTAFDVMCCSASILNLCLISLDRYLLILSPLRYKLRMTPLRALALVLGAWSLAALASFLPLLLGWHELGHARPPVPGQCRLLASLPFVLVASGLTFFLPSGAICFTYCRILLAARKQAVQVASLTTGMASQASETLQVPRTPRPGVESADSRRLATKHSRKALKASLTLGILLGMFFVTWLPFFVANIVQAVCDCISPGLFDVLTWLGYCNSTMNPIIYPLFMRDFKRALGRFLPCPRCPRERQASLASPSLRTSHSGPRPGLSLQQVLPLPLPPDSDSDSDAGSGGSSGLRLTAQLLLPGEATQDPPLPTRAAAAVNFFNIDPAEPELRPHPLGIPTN
Sequence of Alpha-1A adrenergic receptor (Homo sapiens) (P35348 whole entry): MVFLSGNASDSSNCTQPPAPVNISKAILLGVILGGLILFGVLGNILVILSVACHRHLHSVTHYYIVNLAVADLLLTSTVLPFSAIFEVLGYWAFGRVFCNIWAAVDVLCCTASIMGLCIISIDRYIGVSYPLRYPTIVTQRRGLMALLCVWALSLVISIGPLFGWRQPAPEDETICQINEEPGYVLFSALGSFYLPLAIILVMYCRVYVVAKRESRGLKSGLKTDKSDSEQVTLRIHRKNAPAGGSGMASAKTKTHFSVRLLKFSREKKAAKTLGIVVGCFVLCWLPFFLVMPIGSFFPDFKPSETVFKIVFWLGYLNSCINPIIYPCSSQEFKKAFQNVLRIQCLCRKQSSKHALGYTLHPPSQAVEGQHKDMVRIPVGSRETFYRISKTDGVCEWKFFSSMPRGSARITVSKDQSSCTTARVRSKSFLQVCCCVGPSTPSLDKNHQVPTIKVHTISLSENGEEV
Sequence of Cytochrome P450 3A4 (P08684 whole entry): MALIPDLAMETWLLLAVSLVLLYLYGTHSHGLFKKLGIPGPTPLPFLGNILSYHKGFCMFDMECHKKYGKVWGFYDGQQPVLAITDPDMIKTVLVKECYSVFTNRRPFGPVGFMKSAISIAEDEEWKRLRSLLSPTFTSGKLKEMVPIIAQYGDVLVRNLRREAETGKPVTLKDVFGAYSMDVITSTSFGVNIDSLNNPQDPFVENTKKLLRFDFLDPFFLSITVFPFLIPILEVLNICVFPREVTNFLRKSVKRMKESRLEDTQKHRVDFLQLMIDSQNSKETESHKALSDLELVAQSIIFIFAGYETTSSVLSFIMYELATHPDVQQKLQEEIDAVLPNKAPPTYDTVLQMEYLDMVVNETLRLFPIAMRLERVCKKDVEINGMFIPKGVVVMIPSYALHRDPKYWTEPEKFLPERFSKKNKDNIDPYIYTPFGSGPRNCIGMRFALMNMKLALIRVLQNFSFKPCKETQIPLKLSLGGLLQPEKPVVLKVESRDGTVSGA
Sequence of 5-hydroxytryptamine receptor 2B (Homo sapiens) (P41595 whole entry): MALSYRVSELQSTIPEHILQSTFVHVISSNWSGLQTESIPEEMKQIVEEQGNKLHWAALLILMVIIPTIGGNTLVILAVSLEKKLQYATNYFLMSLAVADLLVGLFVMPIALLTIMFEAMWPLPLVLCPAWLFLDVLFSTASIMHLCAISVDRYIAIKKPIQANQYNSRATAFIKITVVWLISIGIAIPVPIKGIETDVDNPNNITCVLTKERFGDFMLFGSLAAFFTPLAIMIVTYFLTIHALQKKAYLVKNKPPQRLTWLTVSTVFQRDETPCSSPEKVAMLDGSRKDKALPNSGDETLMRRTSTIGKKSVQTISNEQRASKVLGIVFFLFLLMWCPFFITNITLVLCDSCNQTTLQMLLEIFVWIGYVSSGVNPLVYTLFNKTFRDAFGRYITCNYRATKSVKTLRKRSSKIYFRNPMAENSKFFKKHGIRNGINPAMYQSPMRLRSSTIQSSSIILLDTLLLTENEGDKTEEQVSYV
Sequence of Sigma intracellular receptor 2 (Homo sapiens) (Q5BJF2 whole entry): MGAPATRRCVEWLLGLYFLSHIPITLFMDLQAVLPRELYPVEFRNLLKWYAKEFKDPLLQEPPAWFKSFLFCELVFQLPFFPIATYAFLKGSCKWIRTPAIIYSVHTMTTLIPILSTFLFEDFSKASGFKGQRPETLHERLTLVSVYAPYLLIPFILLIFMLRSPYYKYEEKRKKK
Sequence of 5-hydroxytryptamine receptor 1A (Homo sapiens) (P08908 whole entry): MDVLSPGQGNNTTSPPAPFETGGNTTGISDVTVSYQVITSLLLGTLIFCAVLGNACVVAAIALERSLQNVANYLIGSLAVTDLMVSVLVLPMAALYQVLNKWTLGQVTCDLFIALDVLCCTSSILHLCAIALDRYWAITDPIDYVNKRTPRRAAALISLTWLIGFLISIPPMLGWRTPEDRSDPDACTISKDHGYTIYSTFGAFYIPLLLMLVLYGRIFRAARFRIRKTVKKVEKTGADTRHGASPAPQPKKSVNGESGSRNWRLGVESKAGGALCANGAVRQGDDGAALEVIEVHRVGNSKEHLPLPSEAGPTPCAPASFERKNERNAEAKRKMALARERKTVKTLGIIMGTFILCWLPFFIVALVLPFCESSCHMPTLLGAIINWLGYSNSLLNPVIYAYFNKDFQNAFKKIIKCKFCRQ
Sequence of Alpha-1B adrenergic receptor (Homo sapiens) (P35368 whole entry): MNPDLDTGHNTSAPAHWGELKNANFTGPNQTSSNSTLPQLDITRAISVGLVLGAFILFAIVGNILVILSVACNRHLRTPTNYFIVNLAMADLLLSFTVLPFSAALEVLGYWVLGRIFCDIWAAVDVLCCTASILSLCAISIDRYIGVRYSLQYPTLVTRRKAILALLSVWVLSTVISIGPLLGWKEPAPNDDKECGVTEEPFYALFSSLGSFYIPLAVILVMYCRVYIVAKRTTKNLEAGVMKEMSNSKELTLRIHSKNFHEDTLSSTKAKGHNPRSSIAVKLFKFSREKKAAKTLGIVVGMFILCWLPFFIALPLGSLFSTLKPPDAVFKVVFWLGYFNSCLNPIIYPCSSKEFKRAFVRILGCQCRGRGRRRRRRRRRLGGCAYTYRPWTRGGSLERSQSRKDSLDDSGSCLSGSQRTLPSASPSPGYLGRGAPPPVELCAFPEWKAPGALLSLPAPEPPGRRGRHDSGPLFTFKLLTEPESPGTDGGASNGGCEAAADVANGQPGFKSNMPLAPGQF

Row | Structure (SMILES) | EC50 (Estrogen receptor [2]) | EC50 (Estrogen receptor beta [3]) | EC50 (Estrogen receptor [4]) | EC50 (Estrogen receptor [5]) | EC50 (Estrogen receptor beta [6]) | EC50 (Estrogen receptor beta [7]) | further results
1 | CCCc1c(OCCCOc2ccc(OCC(=O)O)cc2)ccc(C(C)=O)c1O | – | – | – | – | – | – | IC50 [1]: 12.6 nM
2 | OC[C@H]1CCC[C@@H](c2ccc(O)cc2)CC1 | > 10000 nM | 99 nM | > 10000 nM | 221 nM | > 10000 nM | 121 nM | –
3 | OC[C@@H]1CCC[C@H](c2ccc(O)cc2)CC1 | > 11600 nM | 66 nM | > 11600 nM | 199 nM | > 11600 nM | 51 nM | Activity [8]: Active; Activity [9]: inactive; Activity [10]: inactive; EC50 (Estrogen receptor [11]): 2660 nM; Activity (Estrogen receptor beta [12]): Active; Ratio EC50 (Homo sapiens [13]): 4.7; Activity [14]: inactive; EC50 (Estrogen receptor beta [15]): 566 nM; Activity [16]: inactive
4 | C=Cc1cc(O)cc2nc(-c3ccc(O)c(F)c3)oc12 | – | – | – | – | – | – | Ratio IC50 (Homo sapiens [17]): 255
5 | C=Cc1cc(O)cc2nc(-c3ccc(O)cc3)oc12 | – | – | – | – | – | – | Selectivity ratio (Homo sapiens [18]): 127
6 | N#Cc1cc(O)cc2c3c(oc12)-c1ccc(O)cc1CC3 | – | – | – | – | – | – | Selectivity ratio (Homo sapiens [18]): 157
7 | Oc1ccc(C2CCCC(O)CC2)cc1 (racemic) | > 10000 nM | 42 nM | > 10000 nM | – | > 10000 nM | 362 nM | –
8 | Oc1ccc(C23CCCC(CC2)CO3)cc1 (racemic) | – | 509 nM | – | – | – | – | –
9 | OCCC1CCCC(c2ccc(O)cc2)CC1 (racemic) | > 10000 nM | 75 nM | > 10000 nM | – | > 10000 nM | 139 nM | –
10 | O/N=C1\CCCC(c2ccc(O)cc2)CC1 (racemic) | > 10000 nM | 600 nM | > 10000 nM | – | > 10000 nM | > 800 nM | –
11 | O=C1CCCC(c2ccc(O)cc2)CC1 (racemic) | – | 435 nM | – | – | – | – | –
12 | OCC1CCCC(c2ccc(O)cc2)CC1 (racemic) | 10500 nM | 53 nM | > 10000 nM | 99 nM | > 100000 nM | 33 nM | inhibition [19]: 31.9%; inhibition [20]: 2.7%; inhibition [21]: -4.9%; inhibition [22]: -7.3%; IC50 (Cytochrome P450 2D6): 73000 nM; inhibition [23]: 14.6%; inhibition at 1.5 h, 10 µM (hERG (KCNH2)): -1.7%; inhibition [24]: 16%; inhibition [25]: -8.5%; inhibition [26]: -0.1%; inhibition [27]: 19%; IC50 (Cytochrome P450 3A4): 33000 nM; inhibition [28]: 25.3%; inhibition [29]: 17.1%; solubility [30]: Soluble; Activity (MCF7): Active; inhibition [31]: -3.7%; inhibition [32]: -4.8%; IC50 (Cytochrome P450 2C9): 2700 nM; IC50 (Cytochrome P450 1A2): 130000 nM
13 | OC[C@@H]1CCC[C@@H](c2ccc(O)cc2)CC1 (stereo in doubt) | > 10000 nM | 28 nM | > 10000 nM | 61 nM | > 23200 nM | 48 nM | –
14 | OC[C@H]1CCC[C@H](c2ccc(O)cc2)CC1 (stereo in doubt) | > 3000 nM | 18 nM | > 35600 nM | 96 nM | > 35600 nM | 50 nM | –
15 | CCC(=O)[C@@]1(C)CC[C@H]2[C@@H]3CCC4=CC(=O)CCC4=C3CC[C@@]21C [PROMEGESTONE] | – | – | – | – | – | – | IC50 (Progesterone receptor): 0.236 nM
